The term pEC50 denotes the EC50 on a negative log10 scale, so that one unit is a factor of ten. Read a low pEC50 as a large EC50.

Structures are written as SMILES. pEC50: −log10 of the molar value.

The target in the experiment is T1, Gal4/hFXR fusion protein (Homo sapiens, UniProt Q96RI1).
T1 sequence (Q96RI1 262-486 limits assumed): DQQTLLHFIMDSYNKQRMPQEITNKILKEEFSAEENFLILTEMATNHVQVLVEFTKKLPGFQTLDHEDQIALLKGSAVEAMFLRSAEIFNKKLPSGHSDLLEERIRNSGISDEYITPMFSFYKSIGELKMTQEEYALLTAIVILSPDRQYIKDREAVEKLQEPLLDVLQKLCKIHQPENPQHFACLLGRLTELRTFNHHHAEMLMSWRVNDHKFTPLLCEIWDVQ
As to the kind of experiment: Gal4/hFXR fusion protein agonist activity in human 293 cells (luciferase reporter). The format is cell-based. The following applies: Human 293 stable clone 2 expressing Gal4/hFXR, 24 hours incubation. As for the experimental part: Characterization of Compounds for Gal4/hFXR Fusion Protein Agonist Activity in Human 293 Cells
• 1. Compounds to be tested are prepared as 2× stocks in assay medium. • 2. […] The supernatant is removed and the cells are resuspended in 1 ml assay medium. The cells are counted and diluted in assay medium to 200,000 cells per ml. The cells are then plated at 10,000 cells per well in Culturplate-96 plates in 50 μL assay medium. The cells are incubated at 37° C. for approximately 1 hour. • 3. […] All assays include 1 uM GW4064 as a reference standard. • 4. Cells are incubated for 24 hours at 37° C.
• 5. The medium is removed, and the cells are lysed in 25 uL lysis buffer (Promega, E3971). • 6. The plates are analyzed for luciferase activity with luciferase assay reagent (Promega E1483). Plates are read on Victor^3V instrument using the protocol “Shuguang Luciferase assay” (dispense volume=100 uL, plate type=“Packard Viewplate”, measurement height=8 mm from bottom of plate, 5 second read per well).
• 1. For agonist single point screening, data are analyzed in Excel. Each compound is tested in triplicate. The fold stimulation of each compound is calculated as RLUcpd/RLUbkgd. • 2. Comparison to GW4064 is made by the equation (RLUcpd/RLUbkgd)/(RLUGW4064/RLUbkgd) • 3. For agonist potency determinations, statistical analysis of the data is performed using a customized Excel/SAS program.
(Reporter assays use an easily measured gene product as a stand-in for the process of interest.)
Consider `CC(C)OC(=O)C1=CN(C(=O)c2ccc(F)c(F)c2)CC(C)(C)c2cc(C#N)[nH]c21` [Example 1, iso-Propyl 2-cyano-6-(3,4-difluorobenzoyl)-4,4-dimethyl-1,4,5,6-tetrahydropyrrolo[2,3-d]azepine-8-carboxylate], for which the negative-log EC50 (pEC50) is 8.28. For `CC(C)OC(=O)C1=CN(C(=O)c2cccs2)CC(C)(C)c2cc(C#N)[nH]c21` [Example 7, iso-Propyl 2-cyano-4,4-dimethyl-6-(2-thienylcarbonyl)-1,4,5,6-tetrahydropyrrolo[2,3-d]azepine-8-carboxylate], the pEC50 was 7.66. For the molecule `CC(C)OC(=O)C1=CN(C(=O)c2cccc(C(F)(F)F)c2)CC(C)(C)c2cc(C#N)[nH]c21` [Example 8, iso-Propyl 2-cyano-4,4-dimethyl-6-[3-(trifluoromethyl)benzoyl]-1,4,5,6-tetrahydropyrrolo[2,3-d]azepine-8-carboxylate], the pEC50 is 8.10. The value for `CC(C)OC(=O)C1=CN(C(=O)C2CCOCC2)CC(C)(C)c2cc(C#N)[nH]c21` [Example 9, iso-Propyl 2-cyano-4,4-dimethyl-6-(tetrahydro-2H-pyran-4-ylcarbonyl)-1,4,5,6-tetrahydropyrrolo[2,3-d]azepine-8-carboxylate] was 8.05. The molecule `CC(C)OC(=O)C1=CN(C(=O)c2ccc(F)c(F)c2)CC2(CCOCC2)c2cc(C#N)[nH]c21` [Example 10, iso-Propyl 2′-cyano-6′-(3,4-difluorobenzoyl)-2,3,5,5′,6,6′-hexahydro-1′H-spiro[pyran-4,4′-pyrrolo[2,3-d]azepine]-8′carboxylate] had a pEC50 of 7.07.

For the origin of these results see patent US20090137554A1, “1,4,5,6-TETRAHYDRO -PYRROLO[2,3-d]AZEPINES AND -IMIDAZO[4,5-d]AZEPINES AS MODULATORS OF NUCLEAR RECEPTOR ACTIVITY” (Wyeth, priority 2007, published 2009).
